Results reported in paper PMC11906898 (Nature Communications, 2025).
Where two headings read alike, the source gives them in different places.

Assays:
in vitro = in vitro ADME; conditions: human, microsomes, pH 7.4
spontaneous ambulation = assay type: in vivo, C57BL6/J mice; conditions: C6-Quino 30 mg/kg s.c.; morphine 10 or 30 mg/kg s.c.
respiration rate = assay type: in vivo, C57BL6/J mice; conditions: 30 mg/kg sc
seizurogenic activity [1] = conditions: mouse, in vivo
seizurogenic activity [2] = test system: seizurogenic activity

CCN(CC)CCNC(=O)c1c(C)[nH]c(/C=C2\C(=O)Nc3ccc(F)cc32)c1C [Sunitinib]
half-life (in vitro): 27 min

CN1CC[C@]23c4c5ccc(O)c4O[C@H]2[C@@H](O)C=C[C@H]3[C@H]1C5 [morphine]
locomotion (spontaneous ambulation): significant increase in locomotion above baseline | breath rate (respiration rate): showed respiratory depression

SNC80
duration of seizures (seizurogenic activity [1]): 20 min | seizures after sc dosing (seizurogenic activity [1]): produced robust seizures | seizures after intracerebroventricular dosing (seizurogenic activity [2]; mouse, in vivo): caused robust seizures

TAN67
seizures after intracerebroventricular dosing (seizurogenic activity [2]; 100 nmol i.c.v.): caused robust seizures
